Source: US20140044655A1, “NOVEL ACTIVATOR PEPTIDES FOR SYNTHESIZING EXTRACELLULAR MATRIX PROTEINS, AND COSMETIC COMPOSITIONS INCLUDING SAME” (ISP INVESTMENTS INC., priority 2011, published 2014)
Where no end group is shown, it is not given here.

Legend:
Format in all cases: cell-based
[1] = test system: collagen I; test: Specific labeling of collagen I in human fibroblast cultures (epifluorescence); conditions: human dermal fibroblasts; peptide 0.5%, 1% and/or 3% (stock solution 40 mg/kg); 24, 48 and/or 72 hours; vs control
Experimental: (§1) The objective of this study is to determine the influence of the peptides SEQ ID NO: 4 and NO: 5 and the peptide SEQ ID NO: 4 on the expression of the following extracellular matrix proteins: collagen I, collagen III, pro-collagen, fibronectin and hyaluronic acid in human fibroblasts. For this, specific labelings were performed on normal human fibroblast cultures obtained from the dermis.
(§2) Human fibroblasts in culture are treated with the peptide SEQ ID NO: 5 or the peptide SEQ ID NO: 4 at a final concentration of 0.5%, 1% and/or 3% (based on a stock solution at 40 mg/kg), for 24, 48 and/or 72 hours. The cells are then washed, fixed with cold methanol for 4 minutes at 4° C. (for the collagen I, collagen III and hyaluronic acid labelings) or with formaldehyde at 3.7% for 10 minutes at room temperature (for the pro-collagen and fibronectin labelings). The cells are incubated in the presence of a specific rabbit collagen I polyclonal antibody (Rockland, Ref: 600-401-103-0.5), a specific rabbit collagen III polyclonal antibody (Rockland, Ref: 600-401-105-0.5), a specific rat pro-collagen polyclonal antibody (Millipore, Ref: MAB1912), a specific rabbit fibronectin polyclonal antibody (Sigma, Ref: F-3648), then an anti-rabbit secondary antibody coupled with a fluorochrome (Invitrogen, Ref: A21206) or anti-rat coupled with a fluorochrome (Invitrogen, A11006). […]

[2] = test system: collagen III; test: Specific labeling of collagen III in human fibroblast cultures (epifluorescence); conditions: human dermal fibroblasts; peptide 0.5%, 1% and/or 3% (stock solution 40 mg/kg); 24, 48 and/or 72 hours; vs control
Experimental: as §1, §2

[3] = test system: pro-collagen; test: Specific labeling of pro-collagen in human fibroblast cultures (epifluorescence); conditions: human dermal fibroblasts; peptide 0.5%, 1% and/or 3% (stock solution 40 mg/kg); 24, 48 and/or 72 hours; vs control
Experimental: as §1, §2

[4] = test system: fibronectin; test: Specific labeling of fibronectin in human fibroblast cultures (epifluorescence); conditions: human dermal fibroblasts; peptide 0.5%, 1% and/or 3% (stock solution 40 mg/kg); 24, 48 and/or 72 hours; vs control
Experimental: as §1, §2

[5] = test system: hyaluronic acid; test: Specific labeling of hyaluronic acid in human fibroblast cultures (epifluorescence); conditions: human dermal fibroblasts; peptide 0.5%, 1% and/or 3% (stock solution 40 mg/kg); 24, 48 and/or 72 hours; vs control
Experimental: as §1, §2

[6] = test system: collagen I; test: Collagen I immunolabeling in human skin samples cultivated ex vivo; conditions: topical 0.5%, 1% or 3% (stock solution 40 mg/kg), 24, 48 and/or 72 hours
Experimental: (§3) The objective of this study is to determine the influence of the peptide SEQ ID NO: 5 on the expression of the following extracellular matrix proteins: collagen I, collagen III, pro-collagen, fibronectin and hyaluronic acid in the human skin. For this, specific labelings were performed on human skin samples cultivated ex vivo.
(§4) Human skin samples are placed in culture at the air/liquid interface. The peptide SEQ ID NO: 5 is applied topically on the samples at final concentrations of 0.5%, 1% or 3%, (using a stock solution at 40 mg/kg) then the samples are incubated for 24, 48 and/or 72 hours at 37° C.
(§5) These skin samples are then fixed with formaldehyde then embedded in paraffin or fixed and embedded in OCT then frozen at −20° C. Sections with a thickness of 4 μm are then produced (6 μm for cold sections).
(§6) The labelings of the collagen I and the collagen III, on the samples embedded in paraffin, are performed after unmasking specific sites. The immunolabelings are performed using a specific rabbit collagen I polyclonal antibody (Rockland, Ref: 600-401-103-0.5), a specific rabbit collagen III polyclonal antibody (Rockland, Ref: 600-401-105-0.5), then an anti-rabbit secondary antibody coupled with a fluorochrome (Invitrogen, Ref: A21206). […]

[7] = test system: collagen III; test: Collagen III immunolabeling in human skin samples cultivated ex vivo; conditions: topical 0.5%, 1% or 3% (stock solution 40 mg/kg), 24, 48 and/or 72 hours
Experimental: as §3, §4, §5, §6

[8] = test system: pro-collagen; test: Pro-collagen immunolabeling in human skin samples cultivated ex vivo; conditions: topical 0.5%, 1% or 3% (stock solution 40 mg/kg), 24, 48 and/or 72 hours
Experimental: as §3, §4, §5
The immunolabeling of the pro-collagen, on the samples embedded in OCT, is performed after fixing for 10 minutes with cold acetone. The immunolabeling is performed using a specific rat pro-collagen polyclonal antibody (Millipore, Ref: MAB 1912) then an anti-rat secondary antibody, coupled with a fluorescent marker (Invitrogen, A11006).
The cells are then examined under the epifluorescence microscope (Nikon Eclipse E600 microscope).

[9] = test system: hyaluronic acid; test: Hyaluronic acid labeling in human skin samples cultivated ex vivo; conditions: topical 0.5%, 1% or 3% (stock solution 40 mg/kg), 24, 48 and/or 72 hours
Experimental: as §3, §4, §5, §6

[10] = test system: Collagen I messenger RNAs; test: Expression of collagen I messenger RNAs by real-time PCR in human fibroblasts; conditions: 0.5% and 1% (stock solution 40 mg/kg), 24, 48 and 72 hours, comparative Ct method, 18S control
Experimental: The objective of this study is to determine the influence of the peptide SEQ ID NO: 5 on the expression of collagen I messenger RNAs in the human fibroblasts. For this, the expression of collagen I was studied by real-time PCR.
Human fibroblasts in culture are treated with the peptide SEQ ID NO: 5 at final concentrations of 0.5% and 1% (using a stock solution at 40 mg/kg) for 24, 48 and 72 hours. The total RNAs are extracted using an extraction kit (QIAGEN), then reverse transcribed with a specific kit containing RNase inhibitors (Applied Biosystems). A real-time PCR is performed in a thermocycler using a specific Collagen I TaqMan Gene Expression Assay (Applied Biosystem, […]) and a specific 18S TaqMan Gene Expression Assay used as an endogenous control (Applied Biosystem, […]). The relative quantification of the expression of the Collagen I messenger RNAs is performed by the comparative Ct method (the Ct, the threshold cycle, is the intersection between the amplification curve and the threshold line).

[11] = test system: P16; test: Expression of senescence marker P16 in human fibroblasts (immunolabeling); conditions: 0.5% and 1% (stock solution 40 mg/kg), 48 hours
Experimental: The objective of this study is to determine the influence of the peptide SEQ ID NO: 5 on the expression of P16, a protein of which the expression in the skin increases with age. P16 is a protein involved in the negative regulation of the cellular cycle, which has been described as a reliable marker of cellular senescence (Brookes S. et al. Experimental Cell Research 298, 2004).
Human fibroblasts in culture are treated with the peptide SEQ ID NO: 5 at final concentrations of 0.5% and 1% (using a stock solution at 40 mg/kg) for 48 hours. The cells are prepared according to the Shandon Cytoblock® Cell preparation system kit (Thermo Scientific, Ref: 7401150).
The cells are then fixed with formaldehyde then embedded in paraffin. Sections of 4 μm are then produced. The labeling of p16 on the cells embedded in paraffin is performed after unmasking the specific sites. The immunolabelings are performed using a specific mouse p16 polyclonal antibody (Santa-Cruz, Ref: sc-81157), then an anti-mouse secondary antibody coupled with a fluorochrome (Invitrogen, Ref: A21202). The cells are then examined under the epifluorescence microscope (Nikon Eclipse E600 microscope).

[12] = test system: senescent fibroblasts (β-galactosidase activity); test: Reversal of senescence induced by FOXO3a siRNA in human fibroblasts (β-galactosidase, X-Gal staining); conditions: human fibroblasts treated with FOXO3a siRNA 25 nM; peptide 1% (stock solution 40 mg/kg); 48 hours
Excerpt: The objective of this study is to determine the influence of the peptide SEQ ID NO: 5 on senescent fibroblasts, of which the senescence has been induced by the extinction of the FOXO3a gene. These cells overexpress beta-galactosidase, in relation to their senescent state.
FOXO3a is a Forkhead transcription factor involved in cell longevity. In the skin, the negative regulation of FOXO3a accelerates the senescence of normal human fibroblasts (Hyun Kyoung K. et al. J. of Gerontol., 2005, vol. 60A n° 1, pages 4-9). This property was used to advantage to induce senescence in human fibroblasts by blocking FOXO3a expression by a specific interfering RNA (siRNA).
Human fibroblasts in culture are rendered senescent by treatment with a specific siRNA of FOXO3a at a final concentration of 25 nM using the Lipofectamine™ RNAiMAX (Invitrogen, Ref: 13778-075) transfection technique. Untreated controls are produced. The fibroblasts are treated in parallel by the peptide SEQ ID NO: 5 at a final concentration of 1% (using a stock solution at 40 mg/kg) for 48 hours.
The cells are rinsed and fixed in a fixation buffer (0.2% glutaraldehyde, 2% formaldehyde). The cells are then incubated at 37° C. without CO2 for 24 hours with an X-Gal solution at 1 mg/mL in 40 mM of citric acid/phosphate (pH 6), 5 mM K3FeCN6, 5 mM K4FeCN6, 150 mM NaCl and 2 mM MgCl2. […]

Row | Substance | expression of collagen I [1] | expression of collagen III [2] | expression of pro-collagen [3] | expression of fibronectin [4] | expression of hyaluronic acid [5] | expression of collagen I in the dermis [6] | expression of collagen III in the dermis [7] | expression of pro-collagen in the dermis [8] | expression of hyaluronic acid in the human dermis ([9]; dermis) | expression of hyaluronic acid in the human epidermis ([9]; epidermis) | expression of Collagen I messenger RNAs [10] | p16 immunolabeling, nuclear fluorescence (expression of the p16 senescence marker) [11] | β-galactosidase activity (number of cells stained blue) [12]
1 | Gly-Pro-Ala-Gly-Pro-NH2 (GPAGP-NH2) [SEQ ID NO: 5] | stimulate the expression | stimulate the expression | stimulate the expression | stimulate the expression | stimulate the expression | stimulates the expression | stimulates the expression | stimulates the expression | stimulates the expression | stimulates the expression | stimulates the expression | less intense nuclear fluorescence | decrease in the β-galactosidase activity
2 | Gly-Pro-Ala-Gly-Pro (GPAGP) [SEQ ID NO: 4] | stimulate the expression | stimulate the expression | stimulate the expression | stimulate the expression | stimulate the expression | – | – | – | – | – | – | – | –
